Experimental data published in paper PMC11173529, “Structure–Activity Relationship Studies in a Series of Xanthine Inhibitors of SLACK Potassium Channels” (Molecules, 2024).

Target: T1, WT hSLACK (Homo sapiens, UniProt Q5JUK3)
T1 construct: host or cells: CHO-K1
T1 sequence (Q5JUK3 1-1235 isoform Q5JUK3-3): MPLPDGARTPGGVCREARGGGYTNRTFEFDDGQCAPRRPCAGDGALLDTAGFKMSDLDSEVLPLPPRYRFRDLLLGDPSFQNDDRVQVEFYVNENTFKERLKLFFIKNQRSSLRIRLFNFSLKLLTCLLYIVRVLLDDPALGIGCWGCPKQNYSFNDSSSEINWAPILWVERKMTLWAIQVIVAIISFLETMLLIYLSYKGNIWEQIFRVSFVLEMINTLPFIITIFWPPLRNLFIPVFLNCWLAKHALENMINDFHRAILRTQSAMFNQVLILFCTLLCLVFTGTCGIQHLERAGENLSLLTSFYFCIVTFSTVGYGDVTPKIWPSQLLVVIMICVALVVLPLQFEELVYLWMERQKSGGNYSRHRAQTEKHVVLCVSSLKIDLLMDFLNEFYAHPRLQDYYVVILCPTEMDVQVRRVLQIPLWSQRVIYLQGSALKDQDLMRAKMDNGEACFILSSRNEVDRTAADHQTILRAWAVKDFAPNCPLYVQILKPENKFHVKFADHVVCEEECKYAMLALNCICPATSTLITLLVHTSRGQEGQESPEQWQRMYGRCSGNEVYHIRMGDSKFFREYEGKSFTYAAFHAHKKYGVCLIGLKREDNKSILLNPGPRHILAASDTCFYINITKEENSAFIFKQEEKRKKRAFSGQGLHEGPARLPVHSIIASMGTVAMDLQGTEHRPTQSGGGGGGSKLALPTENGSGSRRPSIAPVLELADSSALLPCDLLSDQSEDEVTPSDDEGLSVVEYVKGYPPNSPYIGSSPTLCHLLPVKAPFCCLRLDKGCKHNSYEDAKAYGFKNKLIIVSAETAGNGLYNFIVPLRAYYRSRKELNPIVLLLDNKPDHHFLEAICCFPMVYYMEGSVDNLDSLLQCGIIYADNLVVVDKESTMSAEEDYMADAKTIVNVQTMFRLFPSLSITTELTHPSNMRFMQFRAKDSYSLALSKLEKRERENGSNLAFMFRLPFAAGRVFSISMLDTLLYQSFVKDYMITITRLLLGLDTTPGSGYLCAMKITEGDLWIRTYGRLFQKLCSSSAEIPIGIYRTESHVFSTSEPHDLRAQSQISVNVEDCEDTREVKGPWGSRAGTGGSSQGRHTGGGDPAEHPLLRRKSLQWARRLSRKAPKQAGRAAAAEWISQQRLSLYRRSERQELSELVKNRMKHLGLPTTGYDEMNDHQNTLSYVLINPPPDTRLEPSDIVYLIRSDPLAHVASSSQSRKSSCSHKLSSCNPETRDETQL
Assay: Whole-cell automated patch-clamp (APC) in CHO cells stably expressing WT hSLACK
Format: cell-based
Conditions: for SLACK Imax: maximum inhibition at 30 µM test compound standardized to VU0606170 (set at 100%), WT hSLACK; for IC50: whole-cell APC, CHO cells stably expressing WT hSLACK, averages n ≥ 3, read-out: SLACK IC50
Experimental: All new analogs were tested in our APC assay using CHO cells stably expressing WT SLACK using a concentration-response format with concentrations ranging from 0.125 to 30 μM in half-log steps and a minimum of three cells (replicates) per concentration series. […] Still, there were some notable results. For example, substitution at the 4-position was largely unfavorable regardless of the nature of the substituent (21, 24, 27, 30, and 33) apart from the 4-fluoro analog 18. […] As the trifluoromethyl group is similar in electronegativity to chlorine, but larger than both methyl and chlorine, perhaps the steric bulk of the trifluoromethyl is to blame for the poor potency of these analogs. With the exception of the fluoro (16–18) and cyano (28–30) analogs, substitution at the 3-position was favorable for SLACK activity, with 3-methoxy analog 32 standing out in this set.
Stably transfected monoclonal HEK293 cell lines expressing Slick, Maxi-K α1/β3, Maxi-K α1/β4, CaV3.2, GIRK 1/2, KV2.1, KV7.2, NaV1.7, and TASK-1 were generated as previously described. Stably transfected monoclonal HEK293 cell lines expressing hERG were generated as previously described. CHO-K1 cells expressing human Slack and disease-associated human Slack mutations, G288S and A934T, were generated by transfecting a PiggyBac TRE mammalian expression vector (VectorBuilder, Chicago, IL, USA) containing KCNT1. FuGENE 6 (Promega, Madison, WI, USA) transfection reagent and protocol, together with Opti-MEM (Thermo Fisher Scientific, Walkham, MA, USA), were utilized.
Automated patch-clamp recording was performed with a SyncroPatch 768 PE system (Nanion, Munich, Germany) as previously described. Whole-cell recordings were performed at room temperature. Cells were harvested by first washing with PBS without Mg^2+ or Ca^2+ (Gibco, Billings, MT, USA) to remove cell culture media, followed by dissociation with TryPLE (Gibco, Billings, MT, USA). Cells were then resuspended and diluted to 100,000 cells/mL in external solution. External solution contained 105 mM NaCl, 4 mM KCl, 1 mM MgCl2, 5 mM CaCl2, 10 mM HEPES, and 40 mM N-Methyl-D-glucamine chloride, titrated to pH of 7.4 and osmolarity of 300 mOsm/kg; internal solution contained 70 mM NaCl, 70 mM KF, 10 mM KCl, 5 mM EGTA, and 5 mM HEPES, titrated to a pH of 7.2 and osmolarity of 295 mOsm/kg.
The APC protocol was set as follows: Cells were held at a […] of −80 mV for 100 ms, then a ramp protocol was performed from −100 mV to 80 mV at 0.4 mV/ms, followed by holding the cell at −80 mV for another 100 ms, then steps were performed at −20 mV, 0 mV, +20 mV, +40 mV, and +60 mV for 100 ms of each step. Whole-cell currents were measured at 0 mV and normalized to current after external buffer addition. […] To obtain the concentration-response relationship graphs and IC50 values, we take the median value of the last 7 current amplitude values obtained for each set of data points collected for a given concentration at a particular step.

SLACK Imax	IC50	SMILES
100%	1.7 µM	CN(Cc1ccccc1)c1nc2c(c(=O)n(Cc3ccccc3)c(=O)n2C)n1C [Analog 8]
100%	1.8 µM	CN(Cc1ccccc1)c1nc2c(c(=O)n(Cc3ccccc3F)c(=O)n2C)n1C [Analog 16]
100%	1.6 µM	CN(Cc1ccccc1)c1nc2c(c(=O)n(Cc3cccc(F)c3)c(=O)n2C)n1C [Analog 17]
100%	1.3 µM	CN(Cc1ccccc1)c1nc2c(c(=O)n(Cc3ccc(F)cc3)c(=O)n2C)n1C [Analog 18]
89%	2 µM	CN(Cc1ccccc1)c1nc2c(c(=O)n(Cc3ccccc3Cl)c(=O)n2C)n1C [Analog 19]
100%	1.9 µM	CN(Cc1ccccc1)c1nc2c(c(=O)n(Cc3cccc(Cl)c3)c(=O)n2C)n1C [Analog 20]
100%	2.6 µM	CN(Cc1ccccc1)c1nc2c(c(=O)n(Cc3ccc(Cl)cc3)c(=O)n2C)n1C [Analog 21]
100%	1.6 µM	Cc1ccccc1Cn1c(=O)c2c(nc(N(C)Cc3ccccc3)n2C)n(C)c1=O [Analog 22]
100%	1.5 µM	Cc1cccc(Cn2c(=O)c3c(nc(N(C)Cc4ccccc4)n3C)n(C)c2=O)c1 [Analog 23]
102%	5.5 µM	Cc1ccc(Cn2c(=O)c3c(nc(N(C)Cc4ccccc4)n3C)n(C)c2=O)cc1 [Analog 24]
70%	> 10 µM	CN(Cc1ccccc1)c1nc2c(c(=O)n(Cc3ccccc3C(F)(F)F)c(=O)n2C)n1C [Analog 25]
100%	4.2 µM	CN(Cc1ccccc1)c1nc2c(c(=O)n(Cc3cccc(C(F)(F)F)c3)c(=O)n2C)n1C [Analog 26]
79%	9.7 µM	CN(Cc1ccccc1)c1nc2c(c(=O)n(Cc3ccc(C(F)(F)F)cc3)c(=O)n2C)n1C [Analog 27]
99%	2.5 µM	CN(Cc1ccccc1)c1nc2c(c(=O)n(Cc3ccccc3C#N)c(=O)n2C)n1C [Analog 28]
100%	2.4 µM	CN(Cc1ccccc1)c1nc2c(c(=O)n(Cc3cccc(C#N)c3)c(=O)n2C)n1C [Analog 29]
100%	2.4 µM	CN(Cc1ccccc1)c1nc2c(c(=O)n(Cc3ccc(C#N)cc3)c(=O)n2C)n1C [Analog 30]
100%	1.3 µM	COc1ccccc1Cn1c(=O)c2c(nc(N(C)Cc3ccccc3)n2C)n(C)c1=O [Analog 31]
78%	> 10 µM	COc1ccc(Cn2c(=O)c3c(nc(N(C)Cc4ccccc4)n3C)n(C)c2=O)cc1 [Analog 33]
87%	> 10 µM	CCn1c(N(C)Cc2ccccc2)nc2c1c(=O)n(Cc1ccccc1)c(=O)n2C [Analog 41]
94%	> 10 µM	CCCn1c(N(C)Cc2ccccc2)nc2c1c(=O)n(Cc1ccccc1)c(=O)n2C [Analog 42]

SLACK Imax	IC50	SMILES
55%	> 10 µM	CN(Cc1ccccc1)c1nc2c(c(=O)n(Cc3ccccc3)c(=O)n2C)n1CC1CC1 [Analog 43]
88%	6 µM	Cn1c(NCc2ccccc2)nc2c1c(=O)n(Cc1ccccc1)c(=O)n2C [Analog 46a]
100%	2.7 µM	CN(Cc1ccccc1F)c1nc2c(c(=O)n(Cc3ccccc3)c(=O)n2C)n1C [Analog 47]
100%	1.6 µM	CN(Cc1ccc(F)cc1)c1nc2c(c(=O)n(Cc3ccccc3)c(=O)n2C)n1C [Analog 49]
100%	3 µM	CN(Cc1ccccc1Cl)c1nc2c(c(=O)n(Cc3ccccc3)c(=O)n2C)n1C [Analog 50]
100%	1.7 µM	CN(Cc1cccc(Cl)c1)c1nc2c(c(=O)n(Cc3ccccc3)c(=O)n2C)n1C [Analog 51]
100%	2.3 µM	CN(Cc1ccc(Cl)cc1)c1nc2c(c(=O)n(Cc3ccccc3)c(=O)n2C)n1C [Analog 52]
100%	9.9 µM	Cc1ccccc1CN(C)c1nc2c(c(=O)n(Cc3ccccc3)c(=O)n2C)n1C [Analog 53]
100%	2 µM	Cc1cccc(CN(C)c2nc3c(c(=O)n(Cc4ccccc4)c(=O)n3C)n2C)c1 [Analog 54]
100%	1.8 µM	Cc1ccc(CN(C)c2nc3c(c(=O)n(Cc4ccccc4)c(=O)n3C)n2C)cc1 [Analog 55]
100%	1.9 µM	CN(Cc1ccccc1C(F)(F)F)c1nc2c(c(=O)n(Cc3ccccc3)c(=O)n2C)n1C [Analog 56]
101%	1.5 µM	CN(Cc1cccc(C(F)(F)F)c1)c1nc2c(c(=O)n(Cc3ccccc3)c(=O)n2C)n1C [Analog 57]
100%	1.9 µM	CN(Cc1ccc(C(F)(F)F)cc1)c1nc2c(c(=O)n(Cc3ccccc3)c(=O)n2C)n1C [Analog 58]
101%	4.7 µM	COc1ccccc1CN(C)c1nc2c(c(=O)n(Cc3ccccc3)c(=O)n2C)n1C [Analog 59]
100%	2.7 µM	COc1cccc(CN(C)c2nc3c(c(=O)n(Cc4ccccc4)c(=O)n3C)n2C)c1 [Analog 60]
100%	2.4 µM	COc1ccc(CN(C)c2nc3c(c(=O)n(Cc4ccccc4)c(=O)n3C)n2C)cc1 [Analog 61]
107%	> 10 µM	CN(Cc1ccccn1)c1nc2c(c(=O)n(Cc3ccccc3)c(=O)n2C)n1C [Analog 62]
20%	> 10 µM	CN(Cc1cccnc1)c1nc2c(c(=O)n(Cc3ccccc3)c(=O)n2C)n1C [Analog 63]
70%	> 10 µM	CN(Cc1ccncc1)c1nc2c(c(=O)n(Cc3ccccc3)c(=O)n2C)n1C [Analog 64]
100%	1.6 µM	C[C@H](c1ccccc1)N(C)c1nc2c(c(=O)n(Cc3ccccc3)c(=O)n2C)n1C [Analog 65]
